Drawing on the OPERA property sets (Mansouri et al. 2018), this text covers logP for 100 molecules.

Where a SMILES comes first, the peptide text is derived from it.

The term logP denotes the decadic logarithm of the partition coefficient of the neutral form, usually between octanol and water. High values mean a more lipophilic compound, low ones a more hydrophilic compound.

Regarding `CC(Cl)C(=O)Nc1ccc(C2=NNC(=O)CC2C)cc1` (stereo not given), the logP was 1.4.
In the case of `NC(=O)c1c(O)cccc1O` it was 0.6; in that of `O=C(NO)C(Cc1ccccc1)C(=O)NCc1ccc(F)cc1` (stereo not given), 1.8.
As for `CCOCCCNc1[nH]cnc2ncnc1-2`, the figure is 1.15; as for `C#CCN(N=O)C(=O)NCCCC(NC(C)=O)C(=O)NCc1ccccc1` (stereo not given), 1.12; as for `CCOC(=O)c1cccc(CN)c1`, 1.44.
In the case of `CCCCCI` it was 3.62.
`CC(C)CNc1ncnc2c1ncn2C1OC(CO)C(O)C1O` (stereo not given) yielded a logP of 1.01.
As for `CCC(C)C(NC(=O)C(CCCNC(=N)N)NC(C)=O)C(=O)NC(Cc1ccccc1)C(N)=O` (stereo not drawn) (Ac-Arg-Ile-Phe-NH2; configuration not given here), the figure is -0.04.
In the case of `Nc1ccc2nc3ccccn3c2n1` it was 1.38.
As for `COC(=O)c1c(N2CCOCC2)c(-c2ccc(Cl)cc2)cn1C(=O)c1ccccc1`, the figure is 5.5; as for `O=C(Nc1ccccc1)NC1CC(C(=O)O)Nc2cc(Cl)cc(Cl)c21` (stereo not given), 3.28; as for `COC(=O)C(Cc1ccccc1)(Cc1ccccc1)S(=O)(=O)c1ccc([N+](=O)[O-])cc1`, 4.46.
`COc1ccc(CCNCC(O)CON=C(C2CC2)C2CC2)cc1OC` (stereo not given) yielded a logP of 2.42.
In the case of `O=c1[nH]c2cc(Cl)ccc2c(O)c1-c1cccc(Oc2ccccc2)c1` it was 5.1; in that of `CC#CC(O)c1c(C)nc2c3c(c(C(=O)N(C)C)cn12)CCC(c1ccccc1)O3` (stereo not given), 2.7; in that of `CC(SSc1ncc[nH]1)c1ccccc1` (stereo not given), 3.39.
As for `CN(C)C(=O)Nc1cccc(OCc2ccc(Cl)cc2Cl)c1`, the figure is 4.1.
As to `CC(C)NC(=NC#N)NS(=O)(=O)c1cnccc1NC1CCCC1`, the logP was 0.98.
As for `CN(C)CCOc1cc2c(c3ccccc13)-c1ccccc1C2=O`, the figure is 4.32.
In the case of `CC(C)OC(=O)C(=Cc1ccccc1)S(=O)(=O)c1ccc([N+](=O)[O-])cc1` it was 3.62; in that of `CC(C)CC(NC(=O)C(N)Cc1ccc(O)cc1)C(=O)NC(C(=O)O)C(C)C` (stereo not drawn) (H-Tyr-Leu-Val-OH; configuration not given here), -1.45; in that of `CCOC(=O)C(CCc1ccccc1)NC(C)C(=O)N1N=C(C(C)(C)C)SC1C(=O)O` (stereo not given), 1.62.
As for `O=c1cc(CSc2ccccn2)occ1O`, the figure is 1.14; as for `CC(C)NC(=NC#N)NS(=O)(=O)c1cnccc1Nc1cccc(F)c1`, 1.59.
In the case of `COc1ccc(CCNCC(O)COc2ccc(-c3nc(Br)c[nH]3)cc2Cl)cc1OC` (stereo not given), the logP is 4.3.
`O=C1N=C(N2CCOCC2)CN1Cc1ccc(I)cc1` registered a logP of 1.7.
As for `O=C(c1ccccc1)c1ccnnc1`, the logP is 1.09.
In the case of `CNCCC=Cc1cccnc1` it was 1.13; in that of `CC(C)C(=O)OCC1OC(n2cc(I)c(=O)[nH]c2=O)CC1O` (stereo not given), 0.84; in that of `CC(=O)Nc1ccc(S(=O)(=O)Nc2nc(C)c(C)o2)cc1`, 0.46.
Consider `CC(=O)N(O)CCCCCNC(=O)CCC(=O)N(O)CCCCCNC(=O)CCC(=O)N(O)CCCCCNS(C)(=O)=O`, for which the logP was -0.36.
As for `CC(C)CCNc1ncnc2nc[nH]c12`, the figure is 2.51.
In the case of `C=C(C)C(=O)OCC(COC(=O)C(=C)C)COC(=O)C(=C)C` it was 3.53.
In the case of `On1nnc2ccccc21` it was 0.69; in that of `CC1CC2OC(=O)C(C)C2C(O)C2(C)C(=O)C=CC12` (stereo not given), 0.53; in that of `CC(C)CCNc1ncnc2c1ncn2C1OC(CO)C(O)C1O` (stereo not given), 1.6.
In turn, `Nc1nnnn1-c1ccccc1Cl` gave a lipophilicity (logP) of 0.87.
As for `CCOC(=O)C1=C(C)NC(C)=C(C(=O)OC)C1c1cc(OC)c(O)c(OC)c1` (stereo not given), the figure is 2.83.
In the case of `O=C(NP(=O)(N1CC1)N1CC1)c1ccc(F)cc1` it was 0.86.
In the case of `Cc1ccc(CO)c(C=NNC(=O)c2ccccc2)c1O` it was 3.01; in that of `COc1ccc(C2Cc3c(cccc3C(F)(F)F)N(CCN(C)C)C(=O)C2O)cc1` (stereo not given), 4.1; in that of `Cc1nc2c3c(c(C(=O)N(C)C)cn2c1C)CCC(c1ccccc1F)O3` (stereo not given), 3.6.
`CC(C)C(N)C(=O)NC(Cc1ccccc1)C(=O)NC(Cc1ccc(O)cc1)C(=O)O` (stereo not given) displayed a logP of -1.5.
As for `CC(=O)OC(C)(C)C1CCC2(C)CCCC(O)C2C1` (stereo not given), the figure is 3.62.
In the case of `CC(C)C(NC(=O)C(Cc1ccccc1)NC(=O)CNC(=O)CNC(=O)C(N)Cc1c[nH]c2ccccc12)C(=O)O` (stereo not given) (H-WGGFV-OH; configuration not given here) it was -0.44.
In the case of `O=C1c2ccccc2-c2nnc(-c3ccccc3[N+](=O)[O-])cc21` it was 2.64; in that of `CCCCC(=O)C(CCCCOc1cccc(F)c1)n1cncn1` (stereo not given), 3.42; in that of `Clc1ccc2oc3c(Cl)c(Cl)cc(Cl)c3c2c1`, 6.13.
Molecule `OCC1OC(n2cnc3c(NCCCCc4ccccc4)ncnc32)C(O)C1O` (stereo not given) showed a logP of 2.29.
In the case of `CC(=O)NC(CCCCN(Cc1ccccc1)C(=O)N(CCCl)N=O)C(=O)NCc1ccccc1` (stereo not given) it was 2.46; in that of `Cc1sc2ccc3c(C)cc(=O)oc3c2c1C`, 3.65.
In the case of `Nc1nc(F)nc2c1ncn2[C@@H]1O[C@H](CO)[C@@H](O)[C@H]1O` it was -0.8; in that of `FC(F)(F)c1ccc(CNc2[nH]cnc3ncnc2-3)cc1`, 3.19; in that of `CCCCC(=O)OCOCC(=O)C1(O)Cc2c(O)c3c(c(O)c2C(OC2CC(N(C)C)C(O)C(C)O2)C1)C(=O)c1c(OC)cccc1C3=O` (stereo not given), 2.82.
Molecule `CCCCOCCCNc1[nH]cnc2ncnc1-2` had a logP of 2.22.
In the case of `CC(C)CC(NC(=O)C(N)Cc1c[nH]c2ccccc12)C(=O)NC(CC(C)C)C(=O)NC(C(=O)O)C(C)C` (stereo not given) (H-WLLV-OH; configuration not given here) it was 0.23.
The molecule `C=CCC(=O)Nc1ccc(Cl)c(Cl)c1` displayed a logP of 3.63.
As for `O=C(O)CCCCCON=C(c1ccccc1)c1ncccn1`, the figure is 2.25.
As to `COC(=O)C(C)NP(=O)(OCC1C=CC(n2cc(C)c(=O)[nH]c2=O)O1)Oc1ccc(F)cc1` (stereo not given), the logP was 1.1.
As for `O=C(O)CCCCON=C(c1cccc(C(F)(F)F)c1)c1ncccn1`, the figure is 2.77; as for `CCCC(=NOCC)C1=C(O)CC(C)(C)OC1=O`, 2.56; as for `CC(Nc1[nH]cnc2ncnc1-2)c1ccccc1` (stereo not given), 2.58.
As for `CCCN(CCCCC(NC(C)=O)C(=O)NCc1ccccc1)C(=O)NCCCl` (stereo not given), the figure is 1.13; as for `CCC1CC2C3CCC4=CC(=O)CCC4C3CCC2(C)C1C(=O)CO` (stereo not given), 4.01.
As for `Clc1cc(Cl)c2c(c1)Oc1c(ccc(Cl)c1Cl)O2`, the figure is 6.43; as for `C[N+](C)([O-])Cc1ccccc1`, -0.57; as for `CCC(C)C(NC(=O)CNC(=O)C1CCCN1C(=O)C(N)Cc1ccc(O)cc1)C(=O)O` (stereo not given) (H-YPGI-OH; configuration not given here), -1.65.
In turn, `CCOP(=O)(OCC)C(Cl)(Cl)P(=O)(OCC)OCC` had a logP of 1.31.
As for `CC(C)CC(N)C(=O)N1CCCC1C(=O)NC(CC(C)C)C(=O)O` (stereo not given), the figure is -1.56.
Turning to `COCCNc1ncnc2c1ncn2C1OC(CO)C(O)C1O` (stereo not given), the logP was -0.49.
As for `CNC(C)Cc1ccc(F)cc1` (stereo not given), the figure is 2.15; as for `O=C1C=C(N2CCCC2)C(=O)N1c1ccc(F)cc1`, 2.3; as for `CCN(CC)C(=O)COC(=O)c1cc(S(N)(=O)=O)c(Cl)cc1NCc1ccco1`, 2.45.
In the case of `CC(C)C1(C)N=C(c2ncc(-c3ccccc3)cc2C(=O)O)NC1=O` (stereo not given) it was 2.24; in that of `CC(N)C(=O)NC(Cc1ccccc1)C(=O)NCC(=O)NC(C(=O)NC(Cc1ccccc1)C(=O)O)C(C)C` (stereo not given) (H-AFGVF-OH; configuration not given here), -0.59.
In the case of `COc1cc2c(c(OC)c1OC)-c1ccc(O)c(=O)cc1C(N)CC2` (stereo not given) it was 0.74.
In turn, `CC(C)CC(N)C(=O)NC(CC(C)C)C(=O)NC(C)C(=O)NC(Cc1ccccc1)C(=O)O` (stereo not given) (H-LLAF-OH; configuration not given here) yielded a logP of -1.
The molecule `CCN(CC)c1nc(N)nc(Cl)n1` yielded a logP of 2.14.
As for `Cc1nc2ccccc2c(=O)n1CCC(=O)O`, the figure is 0.93; as for `Cc1cccc2nc(N)nc(N)c12`, 1.26.
As for `COc1ccc(O)c(C2=NC(C)(C(=O)O)CS2)c1` (stereo not given), the figure is 1.8; as for `C=C(C)CC(C)(CCC=C(C)C)OC(C)=O` (stereo not given), 4.36.
As for `CC(C)C(N)C(=O)N1CCCC1C(=O)NCC(=O)NC(C(=O)O)C(C)C` (stereo not given) (H-VPGV-OH; configuration not given here), the figure is -2.83; as for `O=C1c2ccc(Cl)cc2OCN1CCO[N+](=O)[O-]`, 2.74.
Turning to `CC(C)OC(=O)C1(S(=O)(=O)c2ccc(Cl)cc2)CCCCC1`, the logP worked out at 3.49.
As for `Clc1ccc(Cl)c2c1oc1c(Cl)ccc(Cl)c12`, the figure is 5.6.
In the case of `O=C(O)CCCCON=C(c1cncnc1)c1cccc(C(F)(F)F)c1` it was 3.26.
In the case of `c1nc(N2CCCCC2)c2[nH]cnc2n1` it was 2.11; in that of `CC1(C(=O)O)CSC(c2ccc(O)cc2O)=N1` (stereo not given), 1.3; in that of `O=C(NS(=O)(=O)c1cnccc1NC1CCCCCC1)N1CCCCC1`, 4.14.
With `CC(C)C(NC(=O)C(N)Cc1ccccc1)C(=O)NCC(=O)O` (stereo not drawn) (H-Phe-Val-Gly-OH; configuration not given here), the logP is -2.33.
As for `Nc1nc(O)nc(Nc2ccccc2)n1`, the figure is 1.9.
As for `CN1CCN(CCn2nnc3ccccc32)CC1`, the figure is 0.36.
As for `NC(=S)NN=C(c1ccccc1)c1ccccn1`, the figure is 1.92; as for `CC(C)CC(NC(=O)C(CC(C)C)NC(=O)C1CCCN1)C(=O)O` (stereo not drawn) (H-Pro-Leu-Leu-OH; configuration not given here), -1.64; as for `Cc1c(O)c(=O)ccn1CCCOC(=O)c1ccccn1`, -0.18.
On to `CCCN(CCC)C1CCc2c(cccc2OC)C1` (stereo not given), for which the log partition coefficient (logP) is 4.24.
In the case of `C=C(Cl)CON=C(C)c1cccc(Oc2nc(OC)cc(OC)n2)c1C(=O)OC` it was 3.63; in that of `O=C(O)Cc1cc(O)ccc1Nc1c(Cl)cccc1Cl`, 3.94.
